# Test results as given in publication PMC4955735 (Anesthesiology, 2016).
# Where two headings read alike, the source gives them in different places.
# Legend:
# [1] = test system: S.typhimurium TA 1537; assay: Bacteria reverse mutation assay
# [2] = test system: THP-1, HepG2 and HEK293 cell lines; assay: In vitro cell assays; type: cell-based; conditions: 0.16 mM to 2.5 mM
# [3] = test system: S.typhimurium TA 98; assay: Bacteria reverse mutation assay
# [4] = test system: S.typhimurium TA 100
# [5] = test system: S.typhimurium TA 1535
# [6] = test system: rats; assay: Escalating phenylephrine infusion during continuous ketamine infusion; type: in vivo, rat; conditions: phenylephrine 4 to 10 μg/kg/min during steady state shallow ketamine anesthesia; n=3
# [7] = humans; cited from earlier work
# [8] = rodents; cited from earlier work
structure (smiles),measurement,setting,value
"COc1ccc2nc3cc(Cl)ccc3c(NCCCNCCCl)c2c1 [191-A, ICR 191 Acridine, reference compound]","number of colonies, positive control","[1]; TA 1537, −S9, 1 μg ICR 191 Acridine per plate",191-A 250
CC[C@H]1OC(=O)[C@H](C)[C@@H](O[C@H]2C[C@@](C)(OC)[C@@H](O)[C@H](C)O2)[C@H](C)[C@@H](O[C@@H]2O[C@H](C)C[C@H](N(C)C)[C@H]2O)[C@](C)(O)C[C@@H](C)C(=O)[C@H](C)[C@@H](O)[C@]1(C)O [erythromycin],toxicity in the same cell lines compared with calabadion 2,[2],very comparable
"CC(O)COC[C@H]1O[C@@H]2O[C@H]3[C@H](O)[C@@H](O)[C@@H](O[C@H]4[C@H](O)[C@@H](O)[C@@H](O[C@H]5[C@H](O)[C@@H](O)[C@@H](O[C@H]6[C@H](O)[C@@H](O)[C@@H](O[C@H]7[C@H](O)[C@@H](O)[C@@H](O[C@H]8[C@H](O)[C@@H](O)[C@@H](O[C@H]1[C@H](O)[C@H]2O)O[C@@H]8COCC(C)O)O[C@@H]7COCC(C)O)O[C@@H]6COCC(C)O)O[C@@H]5COCC(C)O)O[C@@H]4COCC(C)O)O[C@@H]3COCC(C)O (stereo partly drawn) [HP-β-CD, hydroxypropyl-β-cyclodextrin]",toxicity in the same cell lines compared with calabadion 2,[2],very comparable
"Nc1ccc2cc3ccccc3cc2c1 [2-AA, 2-Aminoanthracene, reference compound]","number of colonies, positive control","[3]; TA 98, +S9, 10 μg 2-Aminoanthracene per plate",2-AA 1101
same,"number of colonies, positive control","[4]; TA 100, +S9, 10 μg 2-Aminoanthracene per plate",2-AA 1307
same,"number of colonies, positive control","[1]; TA 1537, +S9, 10 μg 2-Aminoanthracene per plate",2-AA 141
same,"number of colonies, positive control","[5]; TA 1535, +S9, 10 μg 2-Aminoanthracene per plate",2-AA 91
CNC[C@H](O)c1cccc(O)c1 [phenylephrine],effect on EEG power,[6],without effects on EEG power
same,effect on MAP,[6],significant MAP increases
CNC1(c2ccccc2Cl)CCCCC1=O (stereo not drawn) [ketamine],plasma concentration at awakening,[7],1000 ng/mL
same,plasma concentration at maintenance of sedation,[7],2000 to 3000 ng/mL
same,plasma concentration at awakening,[8],5000 ng/mL
"COc1cccc2c1C(=O)c1c(O)c3c(c(O)c1C2=O)C[C@@](O)(C(C)=O)C[C@@H]3O[C@H]1C[C@H](N)[C@H](O)[C@H](C)O1 [D-myc, Daunomycin, reference compound]","number of colonies, positive control","[3]; TA 98, −S9, 6 μg Daunomycin per plate",D-myc 505
CCOC(=O)c1cncn1[C@H](C)c1ccccc1 [etomidate],plasma concentration at awakening,[7],280 ng/mL
same,plasma concentration at maintenance of sedation,[7],300 to 600 ng/mL
same,plasma concentration at awakening,[8],440 ng/mL
"[N-]=[N+]=[N-].[Na+] [SA, Sodium Azide, reference compound]","number of colonies, positive control","[4]; TA 100, −S9, 1.5 μg Sodium Azide per plate",SA 282
same,"number of colonies, positive control","[5]; TA 1535, −S9, 1.5 μg Sodium Azide per plate",SA 446
